We go through two molecules from patent US20110177161A1, “PHARMACEUTICAL COMPOSITIONS OF [5(S)-(2'-HYDROXYETHOXY)-20(S)-CAMPTOTHECIN” (DR. REDDY'S LABORATORIES LIMITED, priority 2007, published 2011).

The subject of data set [1] is NCl-H460 (human small cell lung carcinoma) xenografts. Nature of the data set: NCl-H460 xenograft study in nude mice. Particulars: oral, (d×5)2 schedule. The protocol: To perform the NCl-H460 xenograft study, NCl-H460 tumor pieces measuring ~60 mm^3 were implanted in the space of dorsal lateral flanks of female athymic nude mice to initiate tumor growth. When the tumors were grown to ~150-1000 mm^3, animals were randomized into groups of five prior to initiating therapy. […] Each gram of placebo was formulated to contain 895.2 mg hydroxylpropyl beta cyclodextran, 89.52 mg dextrose anhydrous and 14.9 mg sodium carbonate. Each formulation was dissolved in 2 ml sterile water and administered through oral route in a (d×5)2 schedule. Tumor diameters were measured twice a week using a vernier caliper.
Tumor volumes were calculated assuming tumors to be ellipsoid using the formula: V=(D×d^2)/2, where V (mm^3) is tumor volume, D is longest diameter in mm and d is shortest diameter in mm. Change in tumor volumes (Δ) for each treated (T) and control (C) group were calculated by subtracting the mean tumor volume on the first day of treatment (starting day) from the mean tumor volume on the specified observation day. These values were used to calculate a percentage growth (% T/C) using the formulas:
Percentage tumor growth inhibition (% TGI) was then calculated using the formula: % TGI=100−% TC.
All of the mice bearing subcutaneous tumors measuring approximately 150-800 mm^3 were treated with test compound through oral gavage using a (d×5)2 schedule. Tumor diameters were measured twice in a week using vernier calipers and tumor volumes were calculated assuming tumors to be ellipsoid using the formula V=(D×d^2)/2 where V (mm^3) is tumor volume, D is longest diameter in mm., and d is shortest diameter in mm. Changes in tumor Volumes (Δ volumes) for each treated (T) and control (C) group are calculated, by subtracting the mean tumor volume on the first day of treatment (starting day) from the mean tumor volume of on the specified observation day. These values are used to calculate a percentage growth (% T/C) using the formula: […]
Tumor regressions are defined as partial if the tumor volume decreases to 50% or less of the tumor volume at the start of the treatment without dropping below to 63 mm^3. Complete regression is defined if the tumor volume drops to below measurable limits (<63 mm^3).
The percentage body weight change in comparison to starting day body weight of each animal was calculated using the formula: Percentage Body weight change=[(Body weight on specified observation day-Body weight on starting day)/Body weight on starting day]×100.
The other parameter observed was mortality.

Data set [2] has as its system Saos-2 cells over expressing non-functional BCRP mut#10. Nature of the data set: cells. Particulars: for IC50: Homo sapiens, SAOS-2, 144 h, read-out: BCRP mut#10 (IC50 (nM)). The class given is cell-based, human. The protocol: (§1) The anticancer effect of 5(S)-(2′-hydroxyethoxy)-20(S)-camptothecin & 5(R)-(2′-hydroxyethoxy)-20(S)-camptothecin were evaluated versus the racemate 5(RS)-(2′-hydroxyethoxy)-20(S)-camptothecin on Saos-2 cells over expressing functional BCRP#4 and non-functional BCRP mut#10. The human osteosarcoma cell line, Saos-2, was obtained from ATCC (American Type Culture Collection, Cat#HTB-85, Manassas, Va.) and were maintained in DMEM containing 10% fetal bovine serum, 1% penicillin/streptomycin, and 2 mM glutamine. Saos-2 cells were transfected with either BCRP#4 to over express functional BCRP or BCRP#10 to over express non-functional BCRP transporter. The cells were plated in 96-well plates at a density of 1000 cells per each well in a 0.1 ml of medium and allowed to attach overnight. The next morning the medium was gently aspirated and serial dilutions of the compounds to be tested were added. The cells were incubated at 37° C. in a 5% CO2 incubator. After 6 days of exposure to the test drugs, 10µl of Alamar blue was added aseptically to each well and the plates were returned to the incubator for 6 hr. The amount of the fluorescent dye produced was measured on a Cytofluor.RTM. 2300 (Millipore, Bedford, Mass.) using an excitation wavelength of 530 nm and emission wavelength of 590 nm. The relative fluorescence units obtained were used to calculate the percentage growth at each concentration in relation to the untreated control values. From the percentage growth values the IC50 (inhibitory concentration required to inhibit the cell growth by 50% compared to control cells growth) values were derived.

Data set [3] has as its system Saos-2 cells over expressing functional BCRP#4. The data set is described as follows: cells. The class given is cell-based, human. Particulars: for IC50: Homo sapiens, SAOS-2, 144 h, read-out: BCRP mut#4 (IC50 (nM)). As for the experimental part: as §1

On to `CC[C@@]1(O)C(=O)OCc2c1cc1n(c2=O)C(OCCO)c2cc3ccccc3nc2-1` (mixture of isomers) [5(RS)-(2′-hydroxyethoxy)-20(S)-camptothecin, reference compound], for which the “% Tumor Growth Inhibition” value in data set [1] (Dose 2 mg/kg) amounted to 60%; in data set [1] (Dose 4 mg/kg) it was 64%. The Mortality in data set [1] (Dose 2 mg/kg) and in data set [1] (Dose 4 mg/kg) was 0/5 throughout. Also, the IC50 amounted to 387 nM in data set [2] and 1260 nM in data set [3].

For the molecule `CC[C@@]1(O)C(=O)OCc2c1cc1n(c2=O)[C@@H](OCCO)c2cc3ccccc3nc2-1` [DRF-(5S,20S)-1042, 5(S)-(2′-hydroxyethoxy)-20(S)-camptothecin], in data set [1] (Dose 2 mg/kg), the “% Tumor Growth Inhibition” value was determined as 68% and the Mortality was 0/5. For the same molecule, in data set [1] (Dose 4 mg/kg), the “% Tumor Growth Inhibition” value was determined as 76% and the Mortality was 0/5. In addition, in data set [2], the “fold more cytotoxic than 5(R)-(2′-hydroxyethoxy)-20(S)-camptothecin” value is roughly 6 fold and the half-maximal inhibitory concentration (IC50) stood at 213 nM. In addition, in data set [3], the “fold more cytotoxic than 5(R)-(2′-hydroxyethoxy)-20(S)-camptothecin” value is on record as greater than 2.5 fold and the IC50 was 788 nM.

As a reminder, the IC50 is the point on the concentration scale where inhibition reaches its midpoint.
